Measured values: US12281122B1, “PI3K inhibitors” (Cogent Biosciences, Inc., priority 2023, dated 2025)

How the values were obtained:
[1] = tested on: T47D (PI3Kα-H1047R) cell line; assay: HTRF phospho-AKT(S473) cell assay in T47D cells; format: cell-based, human
Procedure, shortened: (§1)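 T47D (PI3Kα-H1047R; RPMI, 10% FBS, insulin) and SKBR3 (wild-type PI3Kα; McCoy's 5A, 10% FBS) cells treated 2 h at 37 °C with 12-point 1:3 dilutions, top 5 μM and 10 μM respectively, ≤0.5% DMSO. SKBR3 stimulated with 70 ng/ml PDGF-BB for the last 15 min; lysate pAKT(S473) by HTRF, IC50 from curves.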

[2] = tested on: SKBR3 (PI3Kα-Wild Type) cell line; assay: HTRF phospho-AKT(S473) cell assay in SKBR3 cells; format: cell-based, human
Procedure, shortened: as §1

[3] = Homo sapiens; T47D (PI3Kα-H1047R) cells, HTRF phospho-AKT(S473), 2 hours compound incubation
[4] = Homo sapiens, SK-BR-3; SKBR3 (PI3Kα-Wild Type) cells, HTRF phospho-AKT(S473), 2 hours compound incubation, PDGF-BB stimulated
[5] = Homo sapiens; HTRF phospho-AKT(S473), T47D (PI3Kα-H1047R) cells, 2 hours compound incubation
[6] = Homo sapiens, SK-BR-3; HTRF phospho-AKT(S473), SKBR3 (PI3Kα-Wild Type) cells, 2 hours compound incubation, PDGF-BB stimulated

IC50 [1, 3] [nM]	IC50 [2, 4] [nM]	IC50 [1, 5] [nM]	IC50 [2, 6] [nM]	SMILES
250 to 500	1000 to 5000			Cc1cc([C@@H](C)Nc2ccc(Cl)nc2C(=O)NS(C)(=O)=O)c2nc(N3CCC(c4cnc(C(F)F)cn4)CC3)n(C)c(=O)c2c1 [Compound 428, (R)-6-chloro-3-((1-(2-(4-(5-(difluoromethyl)pyrazin-2-yl)piperidin-1-yl)-3,6-dimethyl-4-oxo-3,4-dihydroquinazolin-8-yl)ethyl)amino)-N-(methylsulfonyl) picolinamide]
		500 to 1000	≥ 5000	[2H]C([2H])([2H])n1ncc(F)c1C1CCN(c2nc3c([C@@H](C)Nc4ccc(Cl)nc4C(=O)NS(C)(=O)=O)cc(C)cc3c(=O)n2C)CC1 [Compound 457, (R)-6-chloro-3-((1-(2-(4-(4-fluoro-1-(methyl-d3)-1H-pyrazol-5-yl)piperidin-1-yl)-3,6-dimethyl-4-oxo-3,4-dihydroquinazolin-8-yl)ethyl)amino)-N-(methylsulfonyl) picolinamide]
< 250	1000 to 5000			C[C@@H](Nc1ccc(Cl)nc1C(=O)NS(C)(=O)=O)c1cc(C2CC2)cc2c(=O)n(C)c(N3C[C@@H]4[C@H](C3)[C@H]4c3cnn(C)c3)nc12 [Compound 386, 6-chloro-3-(((R)-1-(6-cyclopropyl-3-methyl-2-((1R,5S,6S)-6-(1-methyl-1H-pyrazol-4-yl)-3-azabicyclo[3.1.0]hexan-3-yl)-4-oxo-3,4-dihydroquinazolin-8-yl)ethyl)amino)-N-(methylsulfonyl) picolinamide]
< 250	1000 to 5000			Cc1cc([C@@H](C)Nc2ccc(Cl)nc2C(=O)NS(C)(=O)=O)c2nc(N3Cc4cnn(-c5ccc(C#N)cc5)c4C3)n(C)c(=O)c2c1 [Compound 240, (R)-6-chloro-3-((1-(2-(1-(4-cyanophenyl)-4,6-dihydropyrrolo[3,4-c]pyrazol-5(1H)-yl)-3,6-dimethyl-4-oxo-3,4-dihydroquinazolin-8-yl)ethyl)amino)-N-(methylsulfonyl) picolinamide]
		< 250	1000 to 5000	Cc1cc([C@@H](C)Nc2ccc(Cl)nc2C(=O)NS(C)(=O)=O)c2nc(N3C[C@@H]4[C@H](C3)[C@H]4c3cc4n(n3)CCO4)n(C)c(=O)c2c1 [Compound 520, 6-chloro-3-(((R)-1-(2-((1R,5S,6R)-6-(2,3-dihydropyrazolo[5,1-b]oxazol-6-yl)-3-azabicyclo[3.1.0]hexan-3-yl)-3,6-dimethyl-4-oxo-3,4-dihydroquinazolin-8-yl)ethyl)amino)-N-(methylsulfonyl) picolinamide]
		250 to 500	≥ 5000	COc1ccc(N2C[C@H]3C[C@@H]2CN3c2nc3c([C@@H](C)Nc4ccc(Cl)nc4C(=O)NS(C)(=O)=O)cc(C)cc3c(=O)n2C)cn1 [Compound 638, 6-chloro-3-(((R)-1-(2-((1R,4R)-5-(6-methoxypyridin-3-yl)-2,5-diazabicyclo [2.2.1]heptan-2-yl)-3,6-dimethyl-4-oxo-3,4-dihydroquinazolin-8-yl)ethyl)amino)-N-(methylsulfonyl) picolinamide]
< 250	1000 to 5000			Cc1cc([C@@H](C)Nc2ccc(Cl)nc2C(=O)NS(C)(=O)=O)c2nc(N3CCC(c4ccc(C)nc4)CC3)n(C)c(=O)c2c1 [Compound 271, (R)-6-chloro-3-((1-(3,6-dimethyl-2-(4-(6-methylpyridin-3-yl)piperidin-1-yl)-4-oxo-3,4-dihydroquinazolin-8-yl)ethyl)amino)-N-(methylsulfonyl) picolinamide]
< 250	1000 to 5000			Cc1cc([C@@H](C)Nc2ccc(Cl)nc2C(=O)NS(C)(=O)=O)c2nc(N3Cc4cnn([C@@H](C)C(F)(F)F)c4C3)n(C)c(=O)c2c1 (relative stereo) [Compound 284, 6-chloro-3-(((R)-1-(3,6-dimethyl-4-oxo-2-(1-((R*)-1,1,1-trifluoropropan-2-yl)-4,6-dihydropyrrolo[3,4-c]pyrazol-5(1H)-yl)-3,4-dihydroquinazolin-8-yl)ethyl)amino)-N-(methylsulfonyl) picolinamide]
		500 to 1000	≥ 5000	Cc1cc([C@@H](C)Nc2ccc(Cl)nc2C(=O)NS(C)(=O)=O)c2nc(N3C[C@@H]4C[C@H]3CN4c3cnc(C)nc3)n(C)c(=O)c2c1 [Compound 576, 6-chloro-3-(((R)-1-(3,6-dimethyl-2-((1S,4S)-5-(2-methylpyrimidin-5-yl)-2,5-diazabicyclo[2.2.1]heptan-2-yl)-4-oxo-3,4-dihydroquinazolin-8-yl)ethyl)amino)-N-(methylsulfonyl) picolinamide]
		< 250	1000 to 5000	Cc1cc([C@@H](C)Nc2ccc(Cl)nc2C(=O)NS(C)(=O)=O)c2nc(N3Cc4cnc(C)cc4C3)n(C)c(=O)c2c1 [Compound 516, (R)-6-chloro-3-((1-(3,6-dimethyl-2-(6-methyl-1,3-dihydro-2H-pyrrolo[3,4-c]pyridin-2-yl)-4-oxo-3,4-dihydroquinazolin-8-yl)ethyl)amino)-N-(methylsulfonyl) picolinamide]
< 250	1000 to 5000			Cc1cc([C@@H](C)Nc2ccc(Cl)nc2C(=O)NS(C)(=O)=O)c2nc(N3CCN(c4ncccn4)CC3)n(C)c(=O)c2c1 [Compound 169, (R)-6-chloro-3-((1-(3,6-dimethyl-4-oxo-2-(4-(pyrimidin-2-yl)piperazin-1-yl)-3,4-dihydroquinazolin-8-yl)ethyl)amino)-N-(methylsulfonyl) picolinamide]
		250 to 500	≥ 5000	Cc1cc([C@@H](C)Nc2ccc(Cl)nc2C(=O)NS(C)(=O)=O)c2nc(N3C[C@@H]4C[C@H]3CN4c3ncc(F)cn3)n(C)c(=O)c2c1 [Compound 669, 6-chloro-3-(((R)-1-(2-((1S,4S)-5-(5-fluoropyrimidin-2-yl)-2,5-diazabicyclo [2.2.1]heptan-2-yl)-3,6-dimethyl-4-oxo-3,4-dihydroquinazolin-8-yl)ethyl)amino)-N-(methylsulfonyl) picolinamide]
250 to 500	≥ 5000			Cc1cc([C@@H](C)Nc2ccc(Cl)nc2C(=O)NS(C)(=O)=O)c2nc(N3CCC(c4nccnc4C)CC3)n(C)c(=O)c2c1 [Compound 438, (R)-6-chloro-3-((1-(3,6-dimethyl-2-(4-(3-methylpyrazin-2-yl)piperidin-1-yl)-4-oxo-3,4-dihydroquinazolin-8-yl)ethyl)amino)-N-(methylsulfonyl) picolinamide]
< 250	1000 to 5000			Cc1cc([C@@H](C)Nc2ccc(Cl)nc2C(=O)NS(C)(=O)=O)c2nc(N3CCc4nocc4C3)n(C)c(=O)c2c1 [Compound 332, (R)-6-chloro-3-((1-(2-(6,7-dihydroisoxazolo[4,3-c]pyridin-5(4H)-yl)-3,6-dimethyl-4-oxo-3,4-dihydroquinazolin-8-yl)ethyl)amino)-N-(methylsulfonyl) picolinamide]
		250 to 500	≥ 5000	Cc1cc([C@@H](C)Nc2ccc(Cl)nc2C(=O)NS(C)(=O)=O)c2nc(N3CCN4C[C@H](n5cc(C)cn5)C[C@H]4C3)n(C)c(=O)c2c1 [Compound 680, 6-chloro-3-(((R)-1-(3,6-dimethyl-2-((7R,8aS)-7-(4-methyl-1H-pyrazol-1-yl)hexahydropyrrolo[1,2-a]pyrazin-2(1H)-yl)-4-oxo-3,4-dihydroquinazolin-8-yl)ethyl)amino)-N-(methylsulfonyl) picolinamide]
< 250	1000 to 5000			Cc1cc([C@@H](C)Nc2ccc(Cl)nc2C(=O)NS(C)(=O)=O)c2nc(N3CCN(c4ccc(C#N)cn4)CC3)n(C)c(=O)c2c1 [Compound 164, (R)-6-chloro-3-((1-(2-(4-(5-cyanopyridin-2-yl)piperazin-1-yl)-3,6-dimethyl-4-oxo-3,4-dihydroquinazolin-8-yl)ethyl)amino)-N-(methylsulfonyl) picolinamide]
< 250	1000 to 5000			Cc1cc([C@@H](C)Nc2ccc(Cl)nc2C(=O)NS(C)(=O)=O)c2nc(N3C[C@@H]4[C@H](C3)[C@H]4c3cnn(C)c3)n(C)c(=O)c2c1 [Compound 336, 6-chloro-3-(((R)-1-(3,6-dimethyl-2-((1R,5S,6S)-6-(1-methyl-1H-pyrazol-4-yl)-3-azabicyclo[3.1.0]hexan-3-yl)-4-oxo-3,4-dihydroquinazolin-8-yl)ethyl)amino)-N-(methylsulfonyl) picolinamide]
< 250	1000 to 5000			Cc1cc([C@@H](C)Nc2ccc(Cl)nc2C(=O)NS(C)(=O)=O)c2nc(N3CCN(c4cnc(C)cn4)CC3)n(C)c(=O)c2c1 [Compound 369, (R)-6-chloro-3-((1-(3,6-dimethyl-2-(4-(5-methylpyrazin-2-yl)piperazin-1-yl)-4-oxo-3,4-dihydroquinazolin-8-yl)ethyl)amino)-N-(methylsulfonyl) picolinamide]
		< 250	500 to 1000	Cc1cc([C@@H](C)Nc2ccc(Cl)nc2C(=O)NS(C)(=O)=O)c2nc(-c3ccc4c(cnn4C)c3)n(C)c(=O)c2c1 [Compound 774, (R)-6-chloro-3-((1-(3,6-dimethyl-2-(1-methyl-1H-indazol-5-yl)-4-oxo-3,4-dihydroquinazolin-8-yl)ethyl)amino)-N-(methylsulfonyl) picolinamide]
		250 to 500	1000 to 5000	Cc1cc([C@@H](C)Nc2ccc(Cl)nc2C(=O)NS(C)(=O)=O)c2nc(N3Cc4cncnc4C3)n(C)c(=O)c2c1 [Compound 517, (R)-6-chloro-3-((1-(2-(5,7-dihydro-6H-pyrrolo [3,4-d]pyrimidin-6-yl)-3,6-dimethyl-4-oxo-3,4-dihydroquinazolin-8-yl)ethyl)amino)-N-(methylsulfonyl) picolinamide]
